Patent US10766888B1, “HMOX1 inducers” (Mitobridge Inc., priority 2019, dated 2020)

System: Primary human pulmonary artery endothelial cells (HPAEC)
Assay: Glutathione (GSH) levels in primary human endothelial cells under hemin stress
Assay type: cell-based
Description: Example 149. Glutathione (GSH) Levels in Primary Human Endothelial Cells
Primary human pulmonary artery endothelial cells (HPAEC) (Lonza # CC-2530) cultured in endothelial cell growth medium-2 (EGM2 media, Lonza # CC-3162) were seeded in white 96-well plate (Corning® #3610) at 12.5 k cells per well and placed at 37° C. in 5% CO2. 18-24 hr post seeding, cells were treated with the compound of Example 17 via media change. 24 hr post treatment with the compound, cells were treated using a freshly prepared hemin stock (Sigma-Aldrich #51280 in 0.1N NaOH) alone or with the compound of Example 17. […] Media was aspirated off and GSH-Glo™ Glutathione Assay (Promega # V6911) was run following the manufacturer's protocol. White bottom plate seal (PerkinElmer #6005199) was used during read. Analysis was done using Softmax Pro.

Q: Which “GSH levels / protection from hemin mediated oxidative stress (in words)” value (24 hr pre-incubation, 30 min hemin stress) does the source give for `Cn1c(Nc2nc3ccccc3o2)nc2cc(C(=O)NCCOCCO)ccc21` [Example 17, 2-(benzo[d]oxazol-2-ylamino)-N-(2-(2-hydroxyethoxy)ethyl)-1-methyl-1H-benzo[d]imidazole-5-carboxamide] here?
A: protects these cells from hemin mediated oxidative stress

Q: What about the “toxicity by visual inspection of cells” value (after 30 min of hemin stress) of the same compound?
A: no toxicity
